From patent US8426398B2 (Emory University, priority 2009, dated 2013)

Experiments:
tubulin [1] = assay: assembly of tubulin subunits into microtubules in vitro (light scattering); assay type: biochemical; conditions: for effect on tubulin polymerization: 25 μM
Experimental: (§1) FIG. 5 is a picture showing the fluorescence quenching of tubulin by Targetin. Panel A, quenching of tubulin fluorescence emission by Targetin in a concentration-dependent manner (▪) control, 10 μM (●), 20 μM (▴), 30 μM (▾), 50 μM ( ? ), 75 μM ( ? ) and 100 μM (♦) Panel B, double-reciprocal plot for Targetin binding to tubulin. […] Equivalent amount of solvent DMSO was used as a negative control.
(§2) However, at a four-fold concentration of Targetin (100 μM), it inhibited the rate and extent of tubulin polymerization by ˜17% (FIG. 5C).

[2] = tested on: melanoma, glioblastoma, ovarian, breast carcinoma, and prostate cancer cells; conditions: many cancer cell types; cited from earlier work
[3] = oral 300 mg/kg body weight to 600 mg/kg; cited from earlier work
tubulin [4] = conditions: cited from earlier work
[5] = tested on: cells expressing green fluorescent protein (GFP)-tagged α-tubulin; conditions: 30 second time period; cited from earlier work
folate receptor = biological target: T1, folate receptor (Homo sapiens, UniProt P15328); conditions: KB-31 cells, 3H-folic acid; cited from earlier work
T1 construct: determined in cultured KB-31 cells (nasopharyngeal epidermal carcinoma cell line) overexpressing the folate receptor using ^3H-folic acid; endogenous in cells; host or cells: KB-31 cells
T1 sequence (P15328 25-234): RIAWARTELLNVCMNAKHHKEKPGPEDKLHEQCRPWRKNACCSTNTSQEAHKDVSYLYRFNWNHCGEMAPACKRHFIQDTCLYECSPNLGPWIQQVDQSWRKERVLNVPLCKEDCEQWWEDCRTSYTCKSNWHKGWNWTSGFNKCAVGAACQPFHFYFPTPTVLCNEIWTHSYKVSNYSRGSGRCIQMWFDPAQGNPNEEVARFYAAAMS

[6] = tested on: FR-α overexpressing cancer cells (SK-OV3 human ovarian carcinoma cells, U87 glioblastoma cells); assay: cell viability using Trypan blue (adherent live cells), 48 hours; assay type: cell-based
Experimental: Live cells remain adherent and exclude Trypan blue (although a few late stage dying cells that remain adherent are Trypan blue-positive, and are not counted as live adherent). The numbers of adherent live cells are quantified in panels B and D respectively.
An equal number of two types of cells, (SK-OV3 human ovarian carcinoma cells and U87 glioblastoma cells) were plated in 15 tissue culture dishes. Plates were divided into five groups of triplicates.
FIGS. 8A & B show phase images and quantification of cell viability using Trypan blue in SK-OV3 cells. FIGS. 8C & D show parallel data for human glioblastoma U87 cells. Data for two other FR-α cell lines are similar (not shown).

[7] = tested on: porcine renal LLCPK-1 cells stably expressing GFP-tagged α-tubulin; assay: microtubule dynamics in living cells (plus ends of GFP-tagged α-tubulin MTs); assay type: cell-based; conditions: for Rate, Growing: individual microtubules in interphase cells
Experimental: FIG. 6 is a series of photographs showing how Targetin increases the pause-time of cellular MTs. A gallery of video frames, 6 seconds apart, of plus ends of several microtubules in control and Targetin treated cells.
To determine if Targetin affects MT dynamics in living cells, the life history of the plus ends of Targetin-treated cellular MTs was evaluated, resolvable individually at the cell periphery of porcine renal LLCPK-1 cells stably expressing green fluorescent protein (GFP)-tagged α-tubulin. These cells were treated either with Targetin in DMSO or DMSO alone. […] As expected in control cells, MTs alternated between phases of growth and shortening interrupted occasionally by a state of attenuated dynamic activity (pause), determined by noting the position of the plus ends over time. The control panels show different positions of MT plus ends in a 24 second time period (arrows represent fixed pixel position for reference).

[8] = tested on: variety of cancer cell types with varying degrees of folate receptor expression; assay: sulforhodamine B cellular proliferation assay; assay type: cell-based; conditions: irrespective of folate receptor status
Experimental: Our next goal was to determine whether differences in folate receptor overexpression affected cytotoxicity in response to Targetin. To this end, the ability of Targetin to inhibit cellular proliferation of a variety of cancer cell types with varying degrees of folate receptor expression was evaluated using a sulforhodamine B assay to determine total protein content (FIG. 7).

tubulin [9] = assay: tubulin-fluorescence quenching titration; assay type: binding; conditions: 10-100 μM, compared with parent noscapine
Experimental: as §1, §2

In the case of `COc1ccc2c(c1OC)C(=O)O[C@@H]2[C@H]1c2c(cc3c(c2OC)OCO3)CCN1C` [Noscapine], the “effect on tubulin polymerization” value (tubulin [1]) is listed as “did not inhibit tubulin polymerization”, the “effect on cell cycle and cell death” value [2] is listed as “brief mitotic pause followed by extensive apoptosis” and the “drug bioavailability on doubling the oral dose” value [3] is listed as “did not increase”. For the same compound, the “apparent stoichiometry of binding to tubulin” value (tubulin [4]) was 0.95±0.02 noscapine molecule per tubulin dimer subunit and the “MT dynamics (position of plus ends)” value [5] was “suppressed MT dynamics”.
For `Nc1nc(O)c2nc(CNc3ccc(C(=O)N[C@@H](CCC(=O)O)C(=O)O)cc3)cnc2n1` [folic acid], the “in vitro binding affinity” value (folate receptor) is listed as 41 nmol/L.
For Noscapine-folate [Targetin], the “effect on tubulin polymerization” value (tubulin [1]) was “did not inhibit tubulin polymerization”, the “inhibition of the rate and extent of tubulin polymerization” value (tubulin [1]; 100 μM) was about 17% and the “effectiveness compared with noscapine (adherent live cells)” value ([6]; 10 μM Targetin vs 25 μM noscapine, FR-α overexpressing cell lines) was “significantly more effective than noscapine”. For the same compound, the “effect of free folic acid on Targetin toxicity” value ([6]; 50 μM folic acid + 10 μM Targetin, FR-α overexpressing cancer cells) was “free folic acid mitigates the Targetin toxicity”, the Average pause ([7]; Targetin 5 μM) was 10.25 ± 1.25 s and the Dynamicity ([7]; Targetin 5 μM) was 4.52 ± 1.21 μm/min. The “Percent of total time, Attenuation” value ([7]; Targetin 5 μM) was 32.5%, the “Percent of total time, Growing” value ([7]; Targetin 5 μM) was 35.2% and the “Percent of total time, Shortening” value ([7]; Targetin 5 μM) was 28.5%. The “Rate, Shortening” value ([7]; Targetin 5 μM) was 11.78 ± 1.21 μm/min, the “Transition frequency, Catastrophe” value ([7]; Targetin 5 μM) was 0.079 ± 0.07 s⁻¹ and the “Transition frequency, Rescue” value ([7]; Targetin 5 μM) was 0.07 ± 0.012 s⁻¹. For the same compound, the “Rate, Growing” value ([7]; Targetin 5 μM) was 8.72 ± 1.32 μm/min, the Average pause ([7]; Targetin 10 μM) was 14.52 ± 2.36 s and the Dynamicity ([7]; Targetin 10 μM) was 2.75 ± 1.05 μm/min. For the same compound, the “Percent of total time, Attenuation” value ([7]; Targetin 10 μM) was 44.8%, the “Percent of total time, Growing” value ([7]; Targetin 10 μM) was 24.3% and the “Percent of total time, Shortening” value ([7]; Targetin 10 μM) was 20.1%. For the same compound, the “Rate, Shortening” value ([7]; Targetin 10 μM) was 9.92 ± 1.25 μm/min, the “Transition frequency, Catastrophe” value ([7]; Targetin 10 μM) was 0.072 ± 0.05 s⁻¹ and the “Transition frequency, Rescue” value ([7]; Targetin 10 μM) was 0.059 ± 0.019 s⁻¹. For the same compound, the “Rate, Growing” value ([7]; Targetin 10 μM) was 7.15 ± 0.56 μm/min, the “MT-binding and MT dynamics attenuating activity relative to noscapine” value ([7]; summary statement) was about 3 fold and the “potency in inhibiting cellular proliferation relative to noscapine” value [8] was “about 3 fold”. The “tubulin binding activity (quenching of tubulin fluorescence)” value (tubulin [9]) was “does retain the tubulin binding activity”.
